How the values were obtained:
KRas^WT = molecular target: T1, KRas^WT (Homo sapiens, UniProt P01116); experiment: KRas binding assay (TR-FRET tracer displacement), KRas WT; conditions: for IC50: TR-FRET tracer displacement, KRas WT
T1 construct: Biotinylated KRas (corresponding to amino acids 1-169, produced at Accelegan Inc.); biotin (biotinylated); purchased Accelegan Inc

KRas^G12A = molecular target: T2, KRas^G12A (Homo sapiens, UniProt P01116, G12A); experiment: KRas binding assay (TR-FRET tracer displacement), KRas G12A; conditions: for IC50: TR-FRET tracer displacement, KRas G12A
T2 construct: Biotinylated KRas (corresponding to amino acids 1-169, produced at Accelegan Inc.); biotin (biotinylated); purchased Accelegan Inc

KRas^G12C = molecular target: T3, KRas^G12C (Homo sapiens, UniProt P01116, G12C); experiment: KRas binding assay (TR-FRET tracer displacement), KRas G12C; conditions: for IC50: TR-FRET tracer displacement, KRas G12C
T3 construct: Biotinylated KRas (corresponding to amino acids 1-169, produced at Accelegan Inc.); biotin (biotinylated); purchased Accelegan Inc

KRas^G12D = molecular target: T4, KRas^G12D (Homo sapiens, UniProt P01116, G12D); experiment: KRas binding assay (TR-FRET tracer displacement), KRas G12D
T4 construct: Biotinylated KRas (corresponding to amino acids 1-169, produced at Accelegan Inc.); biotin (biotinylated); purchased Accelegan Inc

KRas^G12R = molecular target: T5, KRas^G12R (Homo sapiens, UniProt P01116, G12R); experiment: KRas binding assay (TR-FRET tracer displacement), KRas G12R
T5 construct: Biotinylated KRas (corresponding to amino acids 1-169, produced at Accelegan Inc.); biotin (biotinylated); purchased Accelegan Inc

KRas^G12S = molecular target: T6, KRas^G12S (Homo sapiens, UniProt P01116, G12S); experiment: KRas binding assay (TR-FRET tracer displacement), KRas G12S; conditions: for IC50: TR-FRET tracer displacement, KRas G12S
T6 construct: Biotinylated KRas (corresponding to amino acids 1-169, produced at Accelegan Inc.); biotin (biotinylated); purchased Accelegan Inc

KRas^G12V = molecular target: T7, KRas^G12V (Homo sapiens, UniProt P01116, G12V); experiment: KRas binding assay (TR-FRET tracer displacement), KRas G12V
T7 construct: Biotinylated KRas (corresponding to amino acids 1-169, produced at Accelegan Inc.); biotin (biotinylated); purchased Accelegan Inc

KRas^G13D = molecular target: T8, KRas^G13D (Homo sapiens, UniProt P01116, G13D); experiment: KRas binding assay (TR-FRET tracer displacement), KRas G13D; conditions: for IC50: TR-FRET tracer displacement, KRas G13D
T8 construct: Biotinylated KRas (corresponding to amino acids 1-169, produced at Accelegan Inc.); biotin (biotinylated); purchased Accelegan Inc

KRas^Q61H = molecular target: T9, KRas^Q61H (Homo sapiens, UniProt P01116, Q61H); experiment: KRas binding assay (TR-FRET tracer displacement), KRas Q61H; conditions: for IC50: TR-FRET tracer displacement, KRas Q61H
T9 construct: Biotinylated KRas (corresponding to amino acids 1-169, produced at Accelegan Inc.); biotin (biotinylated); purchased Accelegan Inc

[1] = system: KRas-mediated phosphorylation of ERK in MKN1 cells; experiment: Inhibition of KRas-mediated phosphorylation of ERK (Cisbio HTRF pERK), MKN1 cells; assay type: cell-based; conditions: Homo sapiens, MKN-1
How it was run: (§1)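 Phospho-ERK is quantified by HTRF with the Advanced pERK kit. Cells go in at 6,000/well in RPMI plus 10% FBS overnight at 37° C. under 5% CO2, with a 4-hour covered room-temperature incubation ahead of the read.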

[2] = system: KRas-mediated phosphorylation of ERK in PSN1 cells; experiment: Inhibition of KRas-mediated phosphorylation of ERK (Cisbio HTRF pERK), PSN1 cells; assay type: cell-based; conditions: Homo sapiens
How it was run: as §1

[3] = system: KRas-mediated phosphorylation of ERK in AsPC-1 cells; experiment: Inhibition of KRas-mediated phosphorylation of ERK (Cisbio HTRF pERK), AsPC-1 cells; assay type: cell-based; conditions: Homo sapiens; for IC50: ASPC1, AsPC-1 cells, HTRF pERK; for inhibition at 0.1 µM: ASPC1, 3 h, single point, 100 nM compound, 3 hrs, AsPC-1 cells
How it was run: (§2)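 Using 6,000 cells per well, compounds are applied for 3 hrs and cells then lysed at 4° C with shaking for 40 mins. Phospho-ERK is measured by HTRF after 2 hrs of lysate incubation with the d2/Cryptate antibody mixture.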

[4] = system: KRas-mediated phosphorylation of ERK in H727 cells; experiment: Inhibition of KRas-mediated phosphorylation of ERK (Cisbio HTRF pERK), H727 cells; assay type: cell-based; conditions: Homo sapiens; for IC50: NCI-H727, H727 cells, HTRF pERK; for inhibition at 0.1 µM: NCI-H727, 3 h, single point, 100 nM compound, 3 hrs, H727 cells
How it was run: as §2

[5] = system: KRas-mediated phosphorylation of ERK in A549 cells; experiment: Inhibition of KRas-mediated phosphorylation of ERK (Cisbio HTRF pERK), A549 cells; assay type: cell-based; conditions: Homo sapiens; for IC50: HTRF pERK; for inhibition at 0.1 µM: A549, 3 h, single point, 100 nM compound, 3 hrs
How it was run: (§3)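 Signal read by HTRF (d2/Cryptate antibody pair, 2 hr room-temperature incubation on lysate). Cells: 6,000 per well, 3 hr compound exposure. Titration: 10 uM highest, 3-fold, 10 points.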

[6] = system: KRas-mediated phosphorylation of ERK in HCT116 cells; experiment: Inhibition of KRas-mediated phosphorylation of ERK (Cisbio HTRF pERK), HCT116 cells; assay type: cell-based; conditions: Homo sapiens; for IC50: HCT-116, HTRF pERK; for inhibition at 0.1 µM: HCT-116, 3 h, single point, 100 nM compound, 3 hrs
How it was run: as §3

[7] = system: KRas-mediated phosphorylation of ERK in H460 cells; experiment: Inhibition of KRas-mediated phosphorylation of ERK (Cisbio HTRF pERK), H460 cells; assay type: cell-based; conditions: Homo sapiens; for inhibition at 0.1 µM: NCI-H460, 3 h, single point, 100 nM compound, 3 hrs
How it was run: as §2

[8] = system: KRas-mediated phosphorylation of ERK in H358 cells; experiment: Inhibition of KRas-mediated phosphorylation of ERK (Cisbio HTRF pERK), H358 cells; assay type: cell-based; conditions: Homo sapiens; for inhibition at 0.1 µM: NCI-H358, 3 h, single point, 100 nM compound, 3 hrs
How it was run: as §2

[9] = single point, 10 nM compound, TR-FRET

T4 sequence (P01116 1-169 isoform P01116-2 G12D): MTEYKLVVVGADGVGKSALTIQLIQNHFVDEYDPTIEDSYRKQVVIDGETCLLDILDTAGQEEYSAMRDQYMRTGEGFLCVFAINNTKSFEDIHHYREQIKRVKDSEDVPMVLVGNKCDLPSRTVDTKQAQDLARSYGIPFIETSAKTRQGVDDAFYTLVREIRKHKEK
T3 sequence (P01116 1-169 isoform P01116-2 G12C): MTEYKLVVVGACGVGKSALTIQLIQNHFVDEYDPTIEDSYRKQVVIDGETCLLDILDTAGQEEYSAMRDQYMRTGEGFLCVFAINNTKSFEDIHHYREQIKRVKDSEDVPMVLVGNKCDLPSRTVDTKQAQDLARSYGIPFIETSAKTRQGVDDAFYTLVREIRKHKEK
T5 sequence (P01116 1-169 isoform P01116-2 G12R): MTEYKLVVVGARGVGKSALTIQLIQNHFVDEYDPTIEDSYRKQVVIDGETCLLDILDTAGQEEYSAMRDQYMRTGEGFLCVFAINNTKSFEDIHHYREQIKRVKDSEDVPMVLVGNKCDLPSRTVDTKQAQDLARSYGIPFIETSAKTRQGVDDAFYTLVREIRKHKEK
T6 sequence (P01116 1-169 isoform P01116-2 G12S): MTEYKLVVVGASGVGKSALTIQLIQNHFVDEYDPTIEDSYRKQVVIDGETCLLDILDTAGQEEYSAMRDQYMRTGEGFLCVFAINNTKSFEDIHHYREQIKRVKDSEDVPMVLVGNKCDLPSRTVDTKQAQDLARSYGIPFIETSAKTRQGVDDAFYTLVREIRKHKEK
T1 sequence (P01116 1-169 isoform P01116-2): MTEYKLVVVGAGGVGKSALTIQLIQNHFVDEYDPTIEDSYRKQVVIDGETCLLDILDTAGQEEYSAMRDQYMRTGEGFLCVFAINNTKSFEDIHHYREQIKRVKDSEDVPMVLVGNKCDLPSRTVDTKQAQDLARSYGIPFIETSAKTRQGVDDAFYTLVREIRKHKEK
T7 sequence (P01116 1-169 isoform P01116-2 G12V): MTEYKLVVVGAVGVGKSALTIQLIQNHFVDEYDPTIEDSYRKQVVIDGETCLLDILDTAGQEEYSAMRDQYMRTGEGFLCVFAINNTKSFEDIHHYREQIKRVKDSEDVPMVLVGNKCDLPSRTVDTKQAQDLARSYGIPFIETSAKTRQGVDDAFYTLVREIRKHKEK
T2 sequence (P01116 1-169 isoform P01116-2 G12A): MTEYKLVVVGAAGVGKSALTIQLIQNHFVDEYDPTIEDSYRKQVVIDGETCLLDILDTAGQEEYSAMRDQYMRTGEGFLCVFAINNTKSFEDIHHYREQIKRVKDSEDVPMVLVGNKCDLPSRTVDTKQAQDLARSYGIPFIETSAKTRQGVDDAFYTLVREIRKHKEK
T9 sequence (P01116 1-169 isoform P01116-2 Q61H): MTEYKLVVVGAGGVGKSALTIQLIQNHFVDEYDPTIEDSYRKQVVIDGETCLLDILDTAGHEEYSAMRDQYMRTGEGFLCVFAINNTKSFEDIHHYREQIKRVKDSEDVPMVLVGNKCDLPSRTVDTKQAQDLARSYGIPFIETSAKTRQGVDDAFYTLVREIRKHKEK
T8 sequence (P01116 1-169 isoform P01116-2 G13D): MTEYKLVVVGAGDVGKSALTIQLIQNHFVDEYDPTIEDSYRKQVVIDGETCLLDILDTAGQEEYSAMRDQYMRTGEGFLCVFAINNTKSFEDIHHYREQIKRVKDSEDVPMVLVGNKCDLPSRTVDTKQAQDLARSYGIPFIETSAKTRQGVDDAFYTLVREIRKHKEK

Structure (SMILES)	IC50 (KRas^WT) [nM]	IC50 (KRas^G12A) [nM]	IC50 (KRas^G12C) [nM]	IC50 (KRas^G12D) [nM]	IC50 (KRas^G12R) [nM]	IC50 (KRas^G12S) [nM]	IC50 (KRas^G12V) [nM]	IC50 (KRas^G13D) [nM]	IC50 (KRas^Q61H) [nM]	IC50 [1] [nM]	IC50 [2] [nM]	IC50 [3] [nM]	IC50 [4] [nM]	inhibition at 0.1 µM [5] [%]	inhibition at 0.1 µM [7] [%]	inhibition at 0.1 µM [6] [%]	inhibition at 0.1 µM [8] [%]	further results
Cc1cc2[nH]ncc2c(-c2ncc3c(N4CCCC5(C4)NC(=O)NC5=O)nc(OCC45CCCN4CCC5)nc3c2F)c1C (stereo not shown) [Example 728, 7-(7-(5,6-dimethyl-1H-indazol-4-yl)-8-fluoro-2-((hexahydro-1H-pyrrolizin-7a-yl)methoxy)pyrido[4,3-d]pyrimidin-4-yl)-1,3,7-triazaspiro[4.5]decane-2,4-dione]	34	35	31	60	34	31	23	37	40	> 10000	> 10000	2510	2510					
O=S1(=O)NCC2(CCCN(c3nc(OCC45CCCN4CCC5)nc4c(F)c(-c5c6ccccc6cc6[nH]ncc56)ncc34)C2)N1 (stereo not shown) [Example 758, 7-(7-(1H-benzo[f]indazol-4-yl)-8-fluoro-2-((hexahydro-1H-pyrrolizin-7a-yl)methoxy)pyrido[4,3-d]pyrimidin-4-yl)-2-thia-1,3,7-triazaspiro[4.5]decane 2,2-dioxide]	< 2	< 2	< 2	5	< 2	< 2	< 2	< 2	< 2			1270	1780	11	9	20	23	
CCc1cccc2cc3[nH]ncc3c(-c3ncc4c(N5CCCC6(CNS(=O)(=O)N6)C5)nc(OC[C@@]56CCCN5C[C@H](F)C6)nc4c3F)c12 (stereo partly drawn) [Example 772, 7-(7-(5-ethyl-1H-benzo[f]indazol-4-yl)-8-fluoro-2-(((2R,7aS)-2-fluorohexahydro-1H-pyrrolizin-7a-yl)methoxy)pyrido[4,3-d]pyrimidin-4-yl)-2-thia-1,3,7-triazaspiro[4.5]decane 2,2-dioxide]	4	5	7	7	12	5	5	4	3			2230	2670	22	19	3	-4	
O=C1NC(=O)[C@]2(CCCN(c3nc(OC[C@@]45CCCN4C[C@H](F)C5)nc4c(F)c(-c5c(C6CC6)c(Cl)cc6[nH]ncc56)ncc34)C2)N1 [Example 780, (5R)-7-(7-(6-chloro-5-cyclopropyl-1H-indazol-4-yl)-8-fluoro-2-(((2R,7aS)-2-fluorohexahydro-1H-pyrrolizin-7a-yl)methoxy)pyrido[4,3-d]pyrimidin-4-yl)-1,3,7-triazaspiro[4.5]decane-2,4-dione]	< 2	< 2	< 2	< 2	< 2	< 2	< 2	< 2	< 2			784	340	21	-8	-2	42	inhibition at 0.1 µM [3]: -12%; inhibition at 0.1 µM [4]: 30%; IC50 [5]: 412 nM; IC50 ([7]; NCI-H460, HTRF pERK): 246 nM; IC50 [6]: 557 nM; IC50 ([8]; NCI-H358, HTRF pERK): 33 nM
CN(C)C(=O)c1cc2n(n1)CCCN(c1nc(OCC34CCCN3CCC4)nc3c(F)c(-c4c(C5CC5)c(Cl)cc5[nH]ncc45)ncc13)C2 [Example 881, 5-(7-(6-chloro-5-cyclopropyl-1H-indazol-4-yl)-8-fluoro-2-((tetrahydro-1H-pyrrolizin-7a(5H)-yl)methoxy)pyrido[4,3-d]pyrimidin-4-yl)-N,N-dimethyl-5,6,7,8-tetrahydro-4H-pyrazolo[1,5-a][1,4]diazepine-2-carboxamide]	22	14	7	2	11	7	4	25	22	> 10000	> 10000	> 10000	> 10000					

Second part, led by results:

IC50 (KRas^WT) [nM]	IC50 (KRas^G12A) [nM]	IC50 (KRas^G12C) [nM]	IC50 (KRas^G12D) [nM]	IC50 (KRas^G12R) [nM]	IC50 (KRas^G12S) [nM]	IC50 (KRas^G12V) [nM]	IC50 (KRas^G13D) [nM]	IC50 (KRas^Q61H) [nM]	IC50 [1] [nM]	IC50 [2] [nM]	IC50 [3] [nM]	IC50 [4] [nM]	Structure (SMILES)	inhibition at 0.1 µM [5] [%]	inhibition at 0.1 µM [7] [%]	inhibition at 0.1 µM [6] [%]	inhibition at 0.1 µM [8] [%]	further results
3	< 2	< 2	< 2	< 2	2	< 2	3	< 2	624	> 10000	1600	292	Oc1cc(Cl)c(C2CC2)c(-c2ncc3c(N4CCC[C@]5(C4)C[C@H](O)C5)nc(OCC45CCCN4CCC5)nc3c2F)c1 [Example 742, (2s,4r)-6-(7-(3-chloro-2-cyclopropyl-5-hydroxyphenyl)-8-fluoro-2-((tetrahydro-1H-pyrrolizin-7a(5H)-yl)methoxy)pyrido[4,3-d]pyrimidin-4-yl)-6-azaspiro[3.5]nonan-2-ol]					IC50 [5]: 2610 nM; IC50 [6]: 1790 nM
			< 2	< 2		< 2					55	53	C#Cc1c(F)ccc2cc(O)cc(-c3ncc4c(N5CCC[C@@](C)(O)C5)nc(OCC5(CN6CCCC6)CC5)nc4c3F)c12 [Example 752, (R)-1-(7-(8-ethynyl-7-fluoro-3-hydroxynaphthalen-1-yl)-8-fluoro-2-((1-(pyrrolidin-1-ylmethyl)cyclopropyl)methoxy)pyrido[4,3-d]pyrimidin-4-yl)-3-methylpiperidin-3-ol]	31	44	32	76	inhibition at 0.01 µM (KRas^WT; [9]): 97%; inhibition at 0.01 µM (KRas^G12A; [9]): 96%; inhibition at 0.01 µM (KRas^G12C; [9]): 99%; inhibition at 0.01 µM (KRas^G12S; [9]): 97%; inhibition at 0.01 µM (KRas^G13D; [9]): 98%; inhibition at 0.01 µM (KRas^Q61H; [9]): 99%; inhibition at 0.1 µM [3]: 27%; inhibition at 0.1 µM [4]: 31%
36	25	33	70	18	20	23	36	45			1250	498	Oc1cc(-c2ncc3c(N4C[C@@H]5C[C@H](C4)[C@H](O)C5)nc(OC[C@@]45CCCN4C[C@H](F)C5)nc3c2F)c2ccc(Cl)cc2c1 [Example 763, (1R,5R,6R)-3-(7-(6-chloro-3-hydroxynaphthalen-1-yl)-8-fluoro-2-(((2R,7aS)-2-fluorohexahydro-1H-pyrrolizin-7a-yl)methoxy)pyrido[4,3-d]pyrimidin-4-yl)-3-azabicyclo[3.2.1]octan-6-ol]	-11	13	5	-25	

Source: patent publication US20260015350A1, “AZAQUINAZOLINE PAN-KRAS INHIBITORS” (Mirati Therapeutics, Inc., priority 2022, published 2026)
